# In US8815934B2, “2-Phenyl-1-[4-(2-Aminoethoxy)-Benzyl]-Indole and estrogen formulations” (Wyeth LLC, priority 1998, dated 2014):
# What was measured:
# estrogen receptor [1] = molecular target: T1, estrogen receptor (Homo sapiens (Human), UniProt P03372); test: 2×VIT ERE infection luciferase assay; type: cell-based; details: for Infection Luciferase Activity, 1 uM + 17β estradiol: 1 uM compound + 1 nM 17β-estradiol (estrogen antagonism); for Infection Luciferase Activity, 1 uM: 1 uM compound alone, percentage of activity as compared to 17β-estradiol
# T1 sequence (P03372 whole entry): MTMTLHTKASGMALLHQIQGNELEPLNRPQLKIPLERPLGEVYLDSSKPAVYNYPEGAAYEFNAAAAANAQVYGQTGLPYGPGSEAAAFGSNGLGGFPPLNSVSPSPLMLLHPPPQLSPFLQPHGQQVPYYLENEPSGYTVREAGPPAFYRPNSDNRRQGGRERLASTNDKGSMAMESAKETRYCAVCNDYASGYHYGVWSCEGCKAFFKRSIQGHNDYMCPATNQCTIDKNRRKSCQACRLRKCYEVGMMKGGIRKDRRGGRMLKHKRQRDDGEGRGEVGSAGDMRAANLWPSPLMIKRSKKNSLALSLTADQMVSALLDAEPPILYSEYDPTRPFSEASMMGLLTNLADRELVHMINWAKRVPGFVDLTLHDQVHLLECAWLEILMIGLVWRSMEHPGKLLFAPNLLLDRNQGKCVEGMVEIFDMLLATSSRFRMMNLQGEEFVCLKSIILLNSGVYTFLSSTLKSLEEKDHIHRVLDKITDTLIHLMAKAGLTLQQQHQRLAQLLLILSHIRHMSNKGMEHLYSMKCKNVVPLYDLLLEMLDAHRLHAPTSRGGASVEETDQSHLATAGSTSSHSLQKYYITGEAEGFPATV
# Experimental: Chinese Hamster Ovary cells (CHO) which had been stably transfected with the human estrogen receptor were maintained in DMEM+10% fetal bovine serum (FBS). 48 h prior to treatment the growth medium was replaced with DMEM lacking phenol red+10% dextran coated charcoal stripped FBS (treatment medium). Cells were plated at a density of 5000 cells/well in 96-well plates containing 200 μL of medium/well.
# Reporter DNA (Promega plasmid pGL2 containing two tandem copies of the vitellogenin ERE in front of the minimal thymidine kinase promoter driving the luciferase gene) was combined with the B-galactosidase expression plasmid pCH110 (Pharmacia) and carrier DNA (pTZ18U) in the following ratio:
# 20 uL of this mixture was added to each well of cells and remained on the cells for 16 h. […] Each treatment condition was performed on 8 wells (n=8) which were incubated for 24 h prior to the luciferase assay.
# After removing the PBS, 25 uL of Promega lysis buffer was added to each well and allowed to stand at room temperature for 15 min, followed by 15 min at −80° C. and 15 min at 37° C. 20 uL of lysate was transferred to an opaque 96 well plate for luciferase activity evaluation and the remaining lysate (5 uL) was used for the B-galactosidase activity evaluation (normalize transfection). The luciferan substrate (Promega) was added in 100 uL aliquots to each well automatically by the luminometer and the light produced (relative light units) was read 10 seconds after addition.
# To the remaining 5 uL of lysate 45 uL of PBS was added. Then 50 uL of Promega B-galactosidase 2× assay buffer was added, mixed well and incubated at 37° C. for 1 hour. A plate containing a standard curve (0.1 to 1.5 milliunits in triplicate) was set up for each experimental run. The plates were analyzed on a Molecular Devices spectrophotometric plate reader at 410 nm. The optical densities for the unknown were converted to milliunits of activity by mathematical extrapolation from the standard curve.
# The luciferase data was generated as relative light units (RLUs) accumulated during a 10 second measurement and automatically transferred to a JMP (SAS Inc) file where background RLUs were subtracted. The B-galactosidase values were automatically imported into the file and these values were divided into the RLUs to normalize the data. The mean and standard deviations were determined from a n=8 for each treatment. […] These techniques are described by Tzukerman, M. T., Esty, A., Santiso-Mere, D., Danielian, P., Parker, M. G., Stein, R. B., Pike, J. W. and McDonnel, D. P. (1994). Human estrogen receptor transactivational capacity was determined by both cellular and promoter context and mediated by two functionally distinct intramolecular regions (see Molecular Endocrinology, 8:21-30).
# [2] = test system: Immature Sprague-Dawley rats; test: Rat uterotrophic/antiuterotrophic bioassay; type: in vivo; details: immature female rats, daily ip; for Uterine wt mg 100 uG cmpd + 1uG 17β-estradiol: 100 uG compound + 1 uG 17β-estradiol; for Uterine wt mg 100 uG cmpd: 100 uG compound, wet weight
# Experimental: The estrogenic and antiestrogenic properties of the compounds were determined in an immature rat uterotrophic assay (4 day) that (as described previously by L. J. Black and R. L. Goode, Life Sciences, 26, 1453 (1980)). Immature Sprague-Dawley rats (female, 18 days old) were tested in groups of six. […] On day 4 the animals were sacrificed by CO2 asphyxiation and their uteri were removed and stripped of excess lipid, any fluid removed and the wet weight determined. A small section of one horn was submitted for histology and the remainder used to isolate total RNA in order to evaluate complement component 3 gene expression.
# Ishikawa cells = test: Ishikawa cell alkaline phosphatase assay; type: cell-based, human; details: for ED50 of estrogenic activity by the alkaline phosphatase method: Ishikawa cells, 48 h treatment, reference standards; for % Activation (Ishikawa alkaline phosphatase) with 1 nM 17β-estradiol: compound + 1 nM 17β-estradiol (antiestrogen test); for % Activation (Ishikawa alkaline phosphatase): compound alone, percent of response related to 1 nM 17β-estradiol
# Experimental: Cells were treated for 48 h prior to assay. […] Sample population for at each dose was n=8. […] Plates are placed at -80° C. for a minimum of […]. Plates are thawed at 37° C. followed by the addition of 150 μL of 0.1 M Tris-HCl, pH 9.8, containing 4 mM para-nitrophenylphosphate (pNPP) to each well (final concentration, 3 mM pNPP). Absorbance and slope calculations were made using the […] Application program (Bio-Tek Instruments, Inc., Winooski, Vt.). […] The four listed in the following were used as reference standards: A description of these methods is described by Holinka, […]., Kuramoto, H. and Gurpide, E. (1986) Effects of steroid hormones and antisteroids on alkaline phosphatase activity in human endometrial cancer cells (Ishikawa Line). Cancer Research, 46:2771-2774, and by […]. and […] simple and sensitive microtiter plate estrogen bioassay based on stimulation alkaline phosphatase in Ishikawa cells; […] Endocrinology, 6:2757-2762.
# estrogen receptor [3] = molecular target: T1, estrogen receptor; test: In vitro estrogen receptor binding assay; details: competition with [3H]17β-estradiol, cytosol of CHO cells overexpressing the estrogen receptor; for IC50: read-out: Receptor Binding IC50's
# Experimental: CHO cells overexpressing the estrogen receptor were grown in 150 mm^2 dishes in DMEM+10% dextran coated charcoal, stripped fetal bovine serum. The plates were washed twice with PBS and once with 10 mM Tris-HCl, pH 7.4, 1 mM EDTA. Cells were harvested by scraping the surface and then the cell suspension was placed on ice. Cells were disrupted with a hand-held motorized tissue grinder using two, 10-second bursts. […] The cytosol was then frozen and stored at −80° C. Protein concentration of the cytosol was estimated using the BCA assay with reference standard protein.
# 100 uG/100 uL of the receptor preparation was aliquoted per well. […] The plate was incubated at room temperature for 2.5 h. […] 200 uL of the supernatant solution was then removed for scintillation counting. Samples were counted to 2% or 10 minutes, whichever occurs first.
# Counts per minute (CPM) of radioactivity were automatically converted to disintegrated per minute (DPM) by the Beckman LS 7500 Scintillation Counter using a set of quenched standards to generate a H No. for each sample.
# For the generation of IC50 curves, % binding is plotted vs compound. […] For a description of these methods, see Hulme, E. C., ed. […] Receptor-Ligand Interactions: A Practical Approach. IRL Press, New York. (see especially chapter 8).
SMILES,"Infection Luciferase Activity, 1 uM + 17β estradiol (estrogen receptor [1])","Infection Luciferase Activity, 1 uM (estrogen receptor [1])",Uterine wt mg 100 uG cmpd + 1uG 17β-estradiol [2],Uterine wt mg 100 uG cmpd [2],IC50 (estrogen receptor [3]),other results
"N#Cc1c(-c2ccc(O)cc2)n(Cc2ccc(OCCN3CCCCC3)cc2)c2ccc(O)cc12 [No. 138, 5-Hydroxy-2-(4-Hydroxy-phenyl)-1-[4-(2-piperidin-1-yl-ethoxy)-benzyl]-1H-indole-3-carbonitrile]",−1%,−2%,37.9 mg,28.4 mg,–,–
C[C@]12CC[C@@H]3c4ccc(O)cc4CC[C@H]3[C@@H]1C[C@@H](O)[C@@H]2O [estriol],–,–,–,–,–,ED50 of estrogenic activity by the alkaline phosphatase method (Ishikawa cells): 0.13 nM
"Cc1c(-c2ccc(O)cc2)n(Cc2ccc(OCC[N+](C)(C)C)cc2)c2ccc(O)cc12.[I-] [No. 106, 2-(4-Hydroxy-phenyl)-3-methyl-1-[4-(2-dimethyl-1-yl-ethoxy)-benzyl]-1H-indol-5-ol methiodide]",81%,10%,–,–,100 nM,–
"Cc1c(-c2ccc(OC(=O)C(C)(C)C)cc2)n(Cc2ccc(OCCN3CCCCC3)cc2)c2ccc(OC(=O)C(C)(C)C)cc12 [No. 162, Di-pivalate ester of 2-(4-Hydroxy-phenyl)-3-methyl-1-[4-(2-piperidin-1-yl-ethoxy)-benzyl]-1H-indol-5-ol]",−13%,−14%,–,–,–,Receptor Binding IC50's (estrogen receptor [3]): Does not Bind
"Cc1c(-c2ccc(OC3CCCC3)cc2)n(Cc2ccc(OCCN3CCCCC3)cc2)c2ccc(O)cc12 [No. 122, 2-(4-Cyclopenyloxy-phenyl)-3-methyl-1-[4-(2-piperidin-1-yl-ethoxy)-benzyl]-1H-indol-5-ol]",5%,1%,38.7 mg,46.7 mg,80 nM,–
"Cc1c(-c2ccc(OC(C)C)cc2)n(Cc2ccc(OCCN3CCCCC3)cc2)c2ccc(O)cc12 [No. 120, 2-(4-Isopropoxy-phenyl)-3-methyl-1-[4-(2-1-yl-ethoxy)-benzyl]-1H-indol-5-ol]",1%,−1%,–,–,100 nM,–
"Cc1c(-c2ccccc2)n(Cc2ccc(OCCN3CCCCC3)cc2)c2ccccc12 [No. 85, 4-{3-Methyl-1-[4-(2-piperidin-1-yl-ethoxy)-benzyl]-1H-indole}]",43%,−2%,92.4 mg,41.1 mg,450 nM,–
O=C(c1ccc(OCCN2CCCCC2)cc1)c1c(-c2ccc(O)cc2)sc2cc(O)ccc12 [raloxifene],–,–,–,–,–,% Activation (Ishikawa alkaline phosphatase) with 1 nM 17β-estradiol (Ishikawa cells): 5% activity (5% with 1 nM 17β-estradiol); % Activation (Ishikawa alkaline phosphatase) (Ishikawa cells): 5% activity (5% with 1 nM 17β-estradiol)
"Cc1c(-c2ccc(C(F)(F)F)cc2)n(Cc2ccc(OCCN3CCCCC3)cc2)c2ccc(O)cc12 [No. 123, 3-Methyl-1-[4-(2-piperidin-1-yl-ethoxy)-benzyl]-2-(4-trifluoromethyl-phenyl)-1H-indol-5-ol]",1%,−1%,61.4 mg,39.2 mg,–,–
"Cc1c(-c2ccc(O)cc2)n(Cc2ccc(OCCN3CCCCCC3)cc2)c2ccc(O)cc12 [No. 98, 1-[4-(2-Azepan-1-yl-ethoxy)-benzyl]-2-(4-hydroxy-phenyl)-3-methyl-1H-indol-5-ol]",–,–,27.9 mg,29.4 mg,–,% Activation (Ishikawa alkaline phosphatase) with 1 nM 17β-estradiol (Ishikawa cells): 1% activity (1% with 1 nM 17β-estradiol); % Activation (Ishikawa alkaline phosphatase) (Ishikawa cells): 1% activity (1% with 1 nM 17β-estradiol)
"Cc1c(-c2ccc3c(c2)OCO3)n(Cc2ccc(OCCN3CCCCC3)cc2)c2ccc(O)cc12 [No. 119, 2-Benzo[1.3]dioxol-5-yl-3-methyl-1-[4-(2-piperidin-1-yl-ethoxy)-benzyl]-1H-indol-5-ol]",−1%,−1%,–,–,70 nM,–
C[C@]12CC[C@@H]3c4ccc(O)cc4CC[C@H]3[C@@H]1CCC2=O [estrone],–,–,–,–,–,ED50 of estrogenic activity by the alkaline phosphatase method (Ishikawa cells): 0.36 nM
C[C@]12CC[C@@H]3c4ccc(O)cc4CC[C@H]3[C@@H]1CC[C@H]2O [17α-estradiol],–,–,–,–,–,ED50 of estrogenic activity by the alkaline phosphatase method (Ishikawa cells): 1.42 nM
